# Test results published in paper PMC11091220, “Metabolism-driven in vitro/in vivo disconnect of an oral ERɑ VHL-PROTAC” (Communications Biology, 2024).
# “And” between values parts separate entries of the source, which are not always exact repeats. Equal values may be shown once.
# What was measured:
# [1] = Mouse hepatocyte intrinsic clearance; type: in vitro ADME
# Experimental: Livers from CD-1 male mice weighing 30-35 g were digested and perfused using D-Hanks solution containing EDTA or collagenase. Once digested the liver was transferred to a petri dish and the hepatocytes were prepared by washing and centrifuging with a Leibovitz-15 medium containing 50% isotonic percoll. A cell viability >80% was required to progress the cells. The test compound was prepared to 10 mM in 100% DMSO and further diluted to 100 μM in 100% acetonitrile. The hepatocyte incubations were prepared in Leibovitz’s L-15 Medium pH 7.4 containing 1 million hepatocytes/mL and a final compound concentration of 1 µM. Cell viability was determined using a Cellometer Vision and >80% cell viability was required to proceed with the compound incubation. The compound/cell solution (250 µL) was incubated for 2 h at 37 °C and shaken at 900 rpm on an Eppendorf Thermomixer Comfort plate shaker. Samples (20 µL) were taken at 0.5, 5, 15, 30, 45, 60, 80, 100, and 120 min and quenched with 100 μL of 100% ice-cold acetonitrile. Samples were shaken at 800 rpm for 2 min and centrifuged at 4000 rpm for 20 min at 4 °C to pellet precipitated protein. The supernatant fraction was diluted 1:5 with deionised water, shaken at 1000 rpm for 2 min, and further diluted 1:1 with deionised water. Samples were analysed by LC-MS/MS[17].
# ERα = target: T1, ERα (Homo sapiens, UniProt P03372); assay: CRISPR VHL knock out, ERα imaging in MCF7 Cas9 cells; type: cell-based; conditions: MCF7 Cas9, 24 h
# T1 construct: endogenous in cells; host or cells: MCF7 (also MCF7 engineered to express Cas9)
# T1 sequence (P03372 1-595): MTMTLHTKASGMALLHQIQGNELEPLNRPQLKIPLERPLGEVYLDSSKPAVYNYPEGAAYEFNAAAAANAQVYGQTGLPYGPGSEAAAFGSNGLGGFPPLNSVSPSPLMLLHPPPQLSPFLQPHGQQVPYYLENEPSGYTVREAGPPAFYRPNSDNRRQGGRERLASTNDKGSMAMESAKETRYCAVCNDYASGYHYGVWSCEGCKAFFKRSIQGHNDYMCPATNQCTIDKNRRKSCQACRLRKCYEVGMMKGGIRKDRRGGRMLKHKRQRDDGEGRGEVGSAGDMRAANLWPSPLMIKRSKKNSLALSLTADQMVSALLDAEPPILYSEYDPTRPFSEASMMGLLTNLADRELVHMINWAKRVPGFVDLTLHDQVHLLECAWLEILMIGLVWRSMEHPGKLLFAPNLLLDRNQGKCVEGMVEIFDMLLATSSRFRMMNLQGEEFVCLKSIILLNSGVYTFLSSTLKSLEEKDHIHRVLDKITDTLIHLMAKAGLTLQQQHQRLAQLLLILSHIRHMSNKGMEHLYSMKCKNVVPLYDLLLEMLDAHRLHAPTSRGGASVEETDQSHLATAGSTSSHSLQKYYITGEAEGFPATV
# Experimental: Chemically synthesised Edit-R crRNAs targeting VHL and ESR1 were purchased from Horizon Discovery (Cambridge, UK). Equal volumes of 4 crRNAs targeting each individual gene were pooled and then duplexed at a 1:1 ratio in 10 mM Tris pH7.4 buffer with tracrRNA (Horizon, U-002000-50) at room temperature. MCF7 cells were engineered to express cas9 under TetON promotor from the endogenous AAVS1 locus as described previously. Doxycycline-inducible Cas9 is linked via the cleavable T2A peptide to BFP enabling the identification of Cas9-positive cells by microscopy. MCF7 cas9 cells were cultured in RPMI phenol red free (Sigma) supplemented with 10% FBS and 1X GlutaMax (both Gibco). 72 h prior to reverse transfection, cas9 expression was induced by the addition 15 ng/mL doxycycline (Sigma) to the growth media.
# MCF7 cells were reverse transfected with the crRNA:tracrRNA pools at 25 nM final concentration using Lipofectamine® RNAiMAX transfection reagent (Thermo Fisher): First crRNA:tracrRNA pools were dispensed into 384-well assay plates (Greiner, 781090), and incubated with 10 µL serum-free DMEM (Sigma) supplemented with 1% Lipofectamine RNAiMAX for 20 minutes at room temperature. […] Following image acquisition, analysis was completed using the Columbus Image Analysis platform (Perkin Elmer) to quantify ESR1 levels in cas9-positive cells. […]
# [2] = test system: CTC174 patient-derived xenograft (PDX) model; assay: Efficacy study in CTC174 PDX model, tumour growth; type: in vivo, mouse
# Experimental: CTC174 (ER/PR positive, HER2-negative patient-derived xenograft (PDX) model) studies were conducted following implantation of a tumour fragment in female NSG mice; established tumours were removed from donor mice and dissected into 3x3x3 mm pieces in RPMI 1640 media. Female NOD scid gamma (NSG) mice were anesthetized using 2% isoflurane, a small incision was made through the skin, 0.5 cm dorsally to the third nipple, and a tumour fragment was inserted between the skin layer and the third mammary fat pad. The skin was closed with surgical glue (VetBond, 3 M).
# Mice were randomised into groups of 8-10 once tumour sizes reached approximately 0.2 cm^3. AZ’6421 was dosed orally at 30 mg/kg QD or 100 mg/kg BID using EF3, alongside a vehicle control. AZD9833 was dosed at 10 mg/kg PO, QD. Tumours were measured twice per week and changes in tumour volume and growth inhibition were determined by bilateral Vernier caliper measurement (length x width), where length was taken to be the longest diameter across the tumour and width the corresponding perpendicular. Tumour volume was calculated using the formula (length x width) x √ (length x width) x π/6). Tumour growth inhibition from the start of the study to the final day of tumour measurement was assessed by comparison of the geometric mean change in tumour volume for the control and treated groups. Tumour regression was calculated as the percentage reduction in tumour volume from baseline (pre-treatment) value (where relative tumour volume [RTV] = geometric mean RTV): %regression=(1−RTV)×100% Statistical significance was evaluated using a one-tailed t-test compared to vehicle control at the day of final tumour measures.
smiles,measurement,setting,value
Cc1ncsc1-c1ccc(CNC(=O)[C@@H]2C[C@@H](O)CN2C(=O)[C@@H](NC(=O)COCCCOCCCOc2cc(F)c([C@@H]3c4[nH]c5ccccc5c4C[C@@H](C)N3CC(C)(C)F)c(F)c2)C(C)(C)C)cc1 [Compound 5],mouse hepatocytes stability,[1],9 µL/min/x10^6 cells
same,hepatocyte CLint at 1 µM,"[1]; male, CD-1, mouse, hepatocytes, pH 7.4, read-out: muHeps (mouse hepatocytes) clearance",9 µL/min/1e6 cells
same,muHeps (mouse hepatocytes) clearance,[1]; mouse,9.5 µL/min/1e6 cells
same,effect of VHL knockout on ER degradation,ERα,partially reduced
same,effect on tumour growth,"[2]; 30 mg/kg QD, CTC174 PDX",no significant effect on tumour growth
same,individual tumour volume relative to day 0,"[2]; 30mg/kg, day 0",1
same,individual tumour volume relative to day 0,"[2]; 30mg/kg, day 3, listed as AZ'6421",0.7122 and 1.194
same,individual tumour volume relative to day 0,"[2]; 30mg/kg, day 24, listed as AZ'6421",0.687 and 1.553 and 0.9229 and 3.138 and 3.998 and 5.933 and 2.313 and 1.402
same,individual tumour volume relative to day 0,"[2]; 30mg/kg, day 28, listed as AZ'6421",0.8313 and 2.512 and 0.8896 and 2.922 and 2.315 and 6.135 and 3.14 and 1.905
same,individual tumour volume relative to day 0,"[2]; 30mg/kg, day 31, listed as AZ'6421",0.7668 and 3.025 and 1.034 and 3.595 and 3.598 and 7.563 and 4.273 and 1.656
same,individual tumour volume relative to day 0,"[2]; 30mg/kg, day 32, listed as AZ'6421",0.5475 and 2.09 and 0.9038 and 4.599 and 4.337 and 8.487 and 4.5171 and 1.317
same,individual tumour volume relative to day 0,"[2]; 30mg/kg, day 35, listed as AZ'6421",0.7044 and 2.34 and 1.039 and 4.934 and 5.34 and 5.3436 and 1.76
same,tumour growth inhibition,"[2]; 100 mg/kg BID, CTC174 PDX",86%
same,individual tumour volume relative to day 0,"[2]; 100mg/kg BID, day 0",1
same,individual tumour volume relative to day 0,"[2]; 100mg/kg BID, day 3, listed as AZ'6421",0.8229 and 1.103 and 0.6717 and 0.9409 and 1.283 and 1.22 and 0.8606
same,individual tumour volume relative to day 0,"[2]; 100mg/kg BID, day 24, listed as AZ'6421",0.798 and 1.29 and 1.172 and 1.123 and 1.125 and 1.792 and 0.9657 and 0.7632
same,individual tumour volume relative to day 0,"[2]; 100mg/kg BID, day 28, listed as AZ'6421",1.185 and 1.364 and 1.661 and 0.8768 and 1.158 and 1.79 and 0.955
same,individual tumour volume relative to day 0,"[2]; 100mg/kg BID, day 31, listed as AZ'6421",1.384 and 1.261 and 1.388 and 0.978 and 1.011 and 2 and 1.056
same,individual tumour volume relative to day 0,"[2]; 100mg/kg BID, day 32, listed as AZ'6421",1.118 and 1.021 and 1.453 and 0.5782 and 0.607 and 1.779 and 0.9427
same,individual tumour volume relative to day 0,"[2]; 100mg/kg BID, day 35, listed as AZ'6421",0.7796 and 0.7051 and 1.086 and 0.6654 and 0.8654 and 1.332 and 0.777
